From patent publication US9387219B2, “Edible composition” (Conopco, Inc., priority 2011, dated 2016)
Values joined by “and” are separate entries in the source; they are usually repeats but may differ in a detail not shown here. Equal entries are not always repeated.

Columns and labels:
[1] = target: T1, Human Lactase Phloridzin Hydrolase (hLPH) (Homo sapiens, UniProt P09848); assay: hLPH enzyme assay (glucoside hydrolysis by LPH extract from Caco-2 cells); type: in vitro ADME; conditions: for μM substrate hydrolysed/hr / Resistance to hydrolysis-% Q4G: glucoside 1.0 mM, 1 hour at 37° C.; for μM substrate hydrolysed/hr: 10% LPH extract (Caco2 cell-line), pH 6.0; for Resistance to hydrolysis-% Q4G: relative to Q4G, 10% LPH extract
T1 construct: endogenous in cells; host or cells: Caco-2 cells held at confluence for 21 days; trans-membrane protein extract passed through a G-25 Sephadex spin column
Procedure: Extracts were stored at −80° C. in 50 ul aliquots. Prior to use extracts were semi-purified, removing low molecular weight interfering components by passing through a small G-25 Sephadex 50-100 μl spin-column (Roche or ThermoFisher Scientific). 10 μl of semi-purified LPH extract was added to 90 μl of glucoside (1.0 mM final concentration) in 0.1 M maleate (Sigma) buffer, pH 6.0 and incubated for 60 minutes at 37° C. The reaction was terminated by addition of 200 μl 2M Tris (Sigma), pH 8.0. […] This allowed a full recovery of glucose which was measured using the Amplex® Red Glucose/Glucose Oxidase Assay. […] Fluorescence was read on a SpectraMax Gemini EM SN plate reader (Molecular Devices) (excitation. 530 nm and emission at 590 nm).

[2] = target: T2, GLUT2 (Homo sapiens, UniProt P11168); assay: Glucose transport inhibitor cell screening assay, 25 mM D-glucose for 30 minutes (GLUT2 inhibition); type: cell-based; conditions: differentiated Caco-2 monolayer, 30 minutes, active at 150 uM
T2 construct: endogenous in cells; host or cells: differentiated Caco-2 cell monolayers (ATCC)
T2 sequence (P11168 1-524): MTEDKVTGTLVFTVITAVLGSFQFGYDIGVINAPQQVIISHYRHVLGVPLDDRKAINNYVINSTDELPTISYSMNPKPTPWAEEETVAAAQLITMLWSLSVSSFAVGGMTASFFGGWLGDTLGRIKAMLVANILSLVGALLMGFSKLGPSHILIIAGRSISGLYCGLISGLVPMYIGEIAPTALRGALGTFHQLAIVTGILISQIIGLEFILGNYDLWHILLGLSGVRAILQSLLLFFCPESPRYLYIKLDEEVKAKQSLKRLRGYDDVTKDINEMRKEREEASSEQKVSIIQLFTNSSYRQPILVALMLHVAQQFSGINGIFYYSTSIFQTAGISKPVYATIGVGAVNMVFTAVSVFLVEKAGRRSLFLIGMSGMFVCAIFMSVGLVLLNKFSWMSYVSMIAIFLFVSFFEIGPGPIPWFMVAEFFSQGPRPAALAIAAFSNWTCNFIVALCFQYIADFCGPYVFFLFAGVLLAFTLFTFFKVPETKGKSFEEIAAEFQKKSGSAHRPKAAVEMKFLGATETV
Procedure: (§1) Human epithelial colorectal adenocarcinoma (Caco-2) cells were obtained from the American Type Culture Collection (ATCC) and cultured in Growth Medium consisting of Dulbecco's modified Eagle's medium (containing Glutamax-1, 4.5 g/L D-glucose and 25 mM 4-(2-hydroxyethyl)-1-piperazine ethanesulphonic acid (Hepes) (Invitrogen)), 10% foetal bovine serum (Sigma), 1% non-essential amino acids (Invitrogen) and 1 mM sodium pyruvate (Sigma)). The cells were routinely passaged at approximately 80% confluence using TrypLE™ Express Stable Trypsin-Like Enzyme (Invitrogen) to detach the cells, and seeded at approximately 114 cells per mm^2 in fresh tissue culture flasks. Only cells between the passage numbers 45 and 49 were used for experiments.
(§2) Corning® HTS Transwell® 96 well permeable insert supports (Sigma) were collagen coated with 40 μl of 50 μg/ml rat tail collagen type I (BD Biosciences) in 0.02 M acetic acid for one hour at room temperature under sterile conditions. The inserts were washed twice in phosphate buffered saline (PBS (Invitrogen)) and the Caco-2 cells seeded into the inserts at 9.6×10^5 cell/ml (75 μl per insert) in Growth Medium and 30 ml of Growth Medium added to the feeder plate below. The cells were left to attach to the collagen matrix and form monolayers over 48 hours at 37° C., 5% CO2. Both inserts and feeder plate were washed in PBS and the cells incubated with BD Entero-STIM™ Enterocyte Differentiation Medium containing MITO+™ Serum Extender solution (both BD Biosciences), 75 μl per insert and 30 ml in the feeder plate, for a further 48 hours at 37° C., 5% CO2.
(§3) Differentiated cell monolayers were washed gently in Dulbecco's Phosphate Buffered Saline containing CaCl2 and MgCl2 (PBS(+) (Invitrogen)) and the inserts transferred to a new Corning® HTS Transwell®-96 well receiver plate (Sigma). The cells were incubated with fresh PBS(+) (75 μl per insert and 225 μl per well) for 60 minutes at 37° C., 5% CO2. The PBS(+) was gently aspirated and replaced with 75 μl per insert of either 5 mM D-glucose (Sigma)±test active or 25 mM D-glucose±test active in triplicate and 225 μl per well of PBS(+) quickly added to each well. The 5 mM glucose wells and the 25 mM glucose wells were incubated at 37° C., 5% CO2 for 15 minutes and 30 minutes, respectively. Details of all the actives tested are found in table 1. The cell inserts were transferred to a new receiver plate, the supernatant gently aspirated from the cells and replaced with 100 μl of 100 μM of Lucifer Yellow (Sigma) solution to confirm the integrity of the monolayers. 225 μl of PBS(+) was added to each well and incubated at 37° C., 5% CO2 for 1 hour. The cell inserts were then discarded and the permeability of the membranes to Lucifer Yellow checked by measuring the fluorescence of the samples at 485 nm (excitation) and 530 nm (emission) on a Spectramax Gemini EM fluorescence microplate reader.
(§4) The amount of glucose transported across the cell monolayers was measured using a glucose assay based on Invitrogen's Amplex Red Glucose/Glucose oxidase Assay Kit. Briefly, 50 μl of each test sample was transferred to a black sided/clear bottom 96-well plate (Greiner Bio-One) to which 100 μl of reaction buffer (0.5 μl 10 mM Ampliflu Red, 1 μl 10 U/ml Horse Radish peroxidase, 1 μl 100 U/ml glucose oxidase and 97.5 μl PBS (all Sigma)) was added. After 10 minutes incubation at room temperature, the fluorescence of the samples were measured at 530 nm (excitation) and 590 nm (emission) on a Spectramax Gemini EM fluorescence microplate reader and the glucose concentration extrapolated from a standard curve.
(§5) At higher D-glucose concentrations, the SGLT1 transporter becomes saturated and consequently the majority of glucose transport across the monolayer is driven by the low affinity, high capacity GLUT2 transporter that is targeted to the apical membrane only following an initial SGLT1-dependent transport of glucose.

[3] = target: T3, SGLT1 (Homo sapiens, UniProt P13866); assay: Glucose transport inhibitor cell screening assay, 5 mM D-glucose for 15 minutes (SGLT1 inhibition); type: cell-based; conditions: for SGLT1 inhibitory activity (in words): Caco-2 cell model; for SGLT1 inhibitory activity (in words) / % Glucose Transport inhibition 5 mM / inhibition at 300 µM: 5 mM D-glucose; for Class (assigned class of transporter inhibited): assigned from % inhibition at 5 mM and 25 mM D-glucose in Caco-2 cells; for % Glucose Transport inhibition 5 mM / inhibition at 300 µM: differentiated Caco-2 monolayer, 15 minutes, active at 300 uM
T3 construct: endogenous in cells; host or cells: differentiated Caco-2 cell monolayers (ATCC)
T3 sequence (P13866 1-664): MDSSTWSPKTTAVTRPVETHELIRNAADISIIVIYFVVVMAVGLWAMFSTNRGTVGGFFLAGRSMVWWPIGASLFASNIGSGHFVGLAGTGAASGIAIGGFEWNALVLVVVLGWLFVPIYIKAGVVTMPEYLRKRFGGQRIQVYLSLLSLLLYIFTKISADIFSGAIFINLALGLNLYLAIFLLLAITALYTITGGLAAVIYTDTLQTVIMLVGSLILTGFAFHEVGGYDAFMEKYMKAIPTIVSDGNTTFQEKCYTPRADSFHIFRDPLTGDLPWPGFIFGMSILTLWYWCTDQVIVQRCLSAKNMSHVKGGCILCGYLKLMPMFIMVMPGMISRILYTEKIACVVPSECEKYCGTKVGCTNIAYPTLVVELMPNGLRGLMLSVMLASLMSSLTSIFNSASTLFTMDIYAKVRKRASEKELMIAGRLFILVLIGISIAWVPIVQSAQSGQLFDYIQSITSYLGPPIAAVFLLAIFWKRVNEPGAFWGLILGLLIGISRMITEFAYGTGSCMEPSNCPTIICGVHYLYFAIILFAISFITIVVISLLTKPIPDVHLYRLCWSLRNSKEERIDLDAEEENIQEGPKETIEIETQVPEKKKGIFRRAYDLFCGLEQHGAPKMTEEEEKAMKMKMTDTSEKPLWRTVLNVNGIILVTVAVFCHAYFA
Procedure: as §1, §2, §3, §4, §5

T1 sequence (P09848 869-1927): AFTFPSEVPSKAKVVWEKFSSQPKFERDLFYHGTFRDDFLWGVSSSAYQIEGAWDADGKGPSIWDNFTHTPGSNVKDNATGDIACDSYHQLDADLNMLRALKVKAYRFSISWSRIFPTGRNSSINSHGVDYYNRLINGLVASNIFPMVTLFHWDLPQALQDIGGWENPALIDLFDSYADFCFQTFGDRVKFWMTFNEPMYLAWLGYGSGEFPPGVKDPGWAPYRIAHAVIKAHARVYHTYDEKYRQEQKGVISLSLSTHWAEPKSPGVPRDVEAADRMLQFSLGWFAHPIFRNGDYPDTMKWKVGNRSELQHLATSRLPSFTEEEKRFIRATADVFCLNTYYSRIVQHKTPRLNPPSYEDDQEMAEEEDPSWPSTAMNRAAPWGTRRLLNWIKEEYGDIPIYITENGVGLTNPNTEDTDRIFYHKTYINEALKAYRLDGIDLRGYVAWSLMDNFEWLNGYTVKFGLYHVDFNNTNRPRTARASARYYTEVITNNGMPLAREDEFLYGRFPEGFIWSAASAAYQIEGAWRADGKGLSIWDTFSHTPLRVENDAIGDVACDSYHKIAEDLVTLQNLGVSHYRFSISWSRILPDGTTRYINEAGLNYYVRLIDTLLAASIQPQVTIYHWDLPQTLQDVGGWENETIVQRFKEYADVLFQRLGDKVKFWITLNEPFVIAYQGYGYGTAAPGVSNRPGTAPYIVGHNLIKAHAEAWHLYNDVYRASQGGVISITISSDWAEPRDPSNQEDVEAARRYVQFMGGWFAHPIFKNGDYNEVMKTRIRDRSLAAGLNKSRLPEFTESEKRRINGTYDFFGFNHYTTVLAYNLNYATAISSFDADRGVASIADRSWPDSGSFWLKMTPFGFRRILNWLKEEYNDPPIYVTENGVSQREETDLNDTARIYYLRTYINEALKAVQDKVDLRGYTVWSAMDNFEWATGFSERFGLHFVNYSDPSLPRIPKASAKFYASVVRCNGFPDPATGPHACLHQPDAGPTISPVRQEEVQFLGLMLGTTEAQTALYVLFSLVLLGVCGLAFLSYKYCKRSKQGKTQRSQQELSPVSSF

SMILES | μM substrate hydrolysed/hr [1] | Resistance to hydrolysis-% Q4G [1] | % Glucose Transport inhibition 25 mM [2] | SGLT1 inhibitory activity (in words) [3] | Class (assigned class of transporter inhibited) [3] | % Glucose Transport inhibition 5 mM [3] | degradation by hLPH (in words) ([1]; Caco-2) | Resistance to hydrolysis-% Q4G ([1]; listed as K3G) | Resistance to hydrolysis-% Q4G ([1]; listed as N7G) | inhibition at 150 µM [2] | inhibition at 300 µM [3]
O=c1cc(-c2ccc(O)c(O)c2)oc2cc(O[C@@H]3O[C@H](CO)[C@@H](O)[C@H](O)[C@H]3O)cc(O)c12 [Luteolin-7-glucoside] | 0.814 μM substrate hydrolysed/hr | 73.72% | 17.03% | inhibition of SGLT1 | SGLT1 | 44.09% |  |  |  |  | 
O=c1c(O[C@@H]2O[C@H](CO)[C@@H](O)[C@H](O)[C@H]2O)c(-c2ccc(O)c(O)c2)oc2cc(O)cc(O)c12 [Quercetin-3-glucoside] | 0.178 μM substrate hydrolysed/hr |  |  | inhibition of SGLT1 | SGLT1 |  |  |  |  |  | 
O=c1c(O)c(-c2ccc(O[C@@H]3O[C@H](CO)[C@@H](O)[C@H](O)[C@H]3O)c(O)c2)oc2cc(O)cc(O)c12 [Quercetin-4-glucoside, reference compound] |  |  |  | inhibition of SGLT1 | SGLT1 |  | highest degree of degradation by hLPH |  |  |  | 
O=C(CCc1ccc(O)cc1)c1c(O)cc(O)cc1O[C@@H]1O[C@H](CO)[C@@H](O)[C@H](O)[C@H]1O [Phloridzin, reference compound] | 0.507 μM substrate hydrolysed/hr | 83.64% |  |  |  |  |  |  |  |  | 
O=c1c(O[C@@H]2O[C@H](CO)[C@@H](O)[C@H](O)[C@H]2O)c(-c2ccc(O)cc2)oc2cc(O)cc(O)c12 [Kaempferol 3-O-glucoside] | 0.224 μM substrate hydrolysed/hr |  |  | inhibition of SGLT1 | SGLT1 |  |  | 92.8% and 92.78% |  |  | 
O=c1c(O)c(-c2ccc(O)cc2)oc2cc(O[C@@H]3O[C@H](CO)[C@@H](O)[C@H](O)[C@H]3O)cc(O)c12 [Kaempferol 7-O-glucoside] | 0.618 μM substrate hydrolysed/hr | 80.05% | 14.42% | inhibition of SGLT1 | SGLT1 | 43.89% |  |  |  |  | 
OC[C@H]1O[C@@H](Oc2cc3c(O)cc(O)cc3[o+]c2-c2ccc(O)cc2)[C@H](O)[C@@H](O)[C@@H]1O [Pelargonidin-3-glucoside] | 1.272 μM substrate hydrolysed/hr | 58.94% |  | inhibition of SGLT1 | SGLT1 |  |  |  |  |  | 
O=c1cc(-c2ccc(O)cc2)oc2c([C@@H]3O[C@H](CO)[C@@H](O)[C@H](O)[C@H]3O)c(O)cc(O)c12 [Apigenin-8-C-glucoside] | 0.685 μM substrate hydrolysed/hr | 77.90% | 5.76% | inhibition of SGLT1 | SGLT1 | 33.84% |  |  |  |  | 
O=C1CC(c2ccc(O)cc2)Oc2cc(O[C@@H]3O[C@H](CO)[C@@H](O)[C@H](O)[C@H]3O)cc(O)c21 (stereo partly drawn) [Naringenin-7-O-glucoside] | 1.564 μM substrate hydrolysed/hr |  | 0.06% | inhibition of SGLT1 | SGLT1 |  |  |  | 49.5% and 49.52% |  | 
O=C1C[C@@H](c2ccc(O)cc2)Oc2cc(O)cc(O)c21 [Naringenin] |  |  |  |  | GLUT2 (GLUT2 inhibitors having ≧20% inhibition at both 5 mM and 25 mM D-glucose levels) |  |  |  |  | 57% | 69%
COc1cc(-c2[o+]c3cc(O)cc(O)c3cc2O[C@@H]2O[C@H](CO)[C@@H](O)[C@H](O)[C@H]2O)cc(OC)c1O [Malvidin-3-O-glucoside] |  |  | 10.91% | inhibition of SGLT1 | SGLT1 |  |  |  |  |  | 
O=c1cc(-c2ccc(O)cc2)oc2cc(O)cc(O)c12 [Apigenin] |  |  |  |  | GLUT2 (GLUT2 inhibitors having ≧20% inhibition at both 5 mM and 25 mM D-glucose levels) |  |  |  |  | 49.3% | 56.8%
O=c1c(O)c(-c2ccc(O)c(O)c2)oc2cc(O)cc(O)c12 [Quercetin] |  |  |  |  | GLUT2 (GLUT2 inhibitors having ≧20% inhibition at both 5 mM and 25 mM D-glucose levels) |  |  |  |  | 61.4% | 80.8%
